Results: patent publication US8404718B2, “Combinations of pyrazole kinase inhibitors” (Astex Therapeutics Limited, priority 2005, dated 2013)

Columns and labels:
Activated CDK2/CyclinA = Activated CDK2/CyclinA (Homo sapiens, UniProt P24941); assay: Activated CDK2/CyclinA kinase inhibitory activity assay (IC50), Example 250A; format: biochemical
Description: Compounds of the invention were tested for kinase inhibitory activity using the following protocol.
The reaction is allowed to proceed for 2 to 4 hours before being stopped with an excess of ortho-phosphoric acid (5 μl at 2%).
γ^33P-ATP which remains unincorporated into the histone H1 is separated from phosphorylated histone H1 on a Millipore MAPH filter plate. The wells of the MAPH plate are wetted with 0.5% orthophosphoric acid, and then the results of the reaction are filtered with a Millipore vacuum filtration unit through the wells. Following filtration, the residue is washed twice with 200 μl of 0.5% orthophosphoric acid. Once the filters have dried, 20 μl of Microscint 20 scintillant is added, and then counted on a Packard Topcount for 30 seconds.

[1] = test system: human colon carcinoma cell line HCT 116; assay: Anti-proliferative activity, Alamar Blue assay; format: cell-based; conditions: 72 hours compound incubation, read-out: IC50, inhibition of cell growth, HCT 116
Description: The anti-proliferative activities of the combinations of the invention, as well as the individual components of the combinations, are determined by measuring the ability of the compounds to inhibition of cell growth in a number of cell lines. Inhibition of cell growth is measured using the Alamar Blue assay (Nociari, M. M, Shalev, A., Benias, P., Russo, C. Journal of Immunological Methods 1998, 213, 157-167). The method is based on the ability of viable cells to reduce resazurin to its fluorescent product resorufin. For each proliferation assay cells are plated onto 96 well plates and allowed to recover for 16 hours prior to the addition of inhibitor compounds for a further 72 hours. At the end of the incubation period 10% (v/v) Alamar Blue is added and incubated for a further 6 hours prior to determination of fluorescent product at […]. In the case of the non-proliferating cell assay cells are maintained at confluence for 96 hour prior to the addition of inhibitor compounds for a further 72 hours. The number of viable cells is determined by Alamar Blue assay as before. All cell lines are obtained from ECACC (European Collection of cell Cultures).

Row | SMILES | IC50 (Activated CDK2/CyclinA) | IC50 [1]
1 | O=C(Nc1c[nH]nc1C(=O)NCC1CC1)c1ccc(N2CCOCC2)cc1Cl [Example 182] | < 20 µM | < 100 µM
2 | CC(C)(C)OC(=O)N1CCC(NC(=O)c2n[nH]cc2NC(=O)c2c(F)cc(F)cc2F)CC1 [Example 136] | < 20 µM | < 20 µM
3 | Cc1nn(C)c(C)c1CNC(=O)c1n[nH]cc1NC(=O)c1c(F)cccc1F [Example 99] | < 20 µM | < 100 µM
4 | CC(C)(C)N1CCC(NC(=O)c2n[nH]cc2NC(=O)c2c(F)cccc2F)CC1 [Example 179] | < 20 µM | < 20 µM
5 | CN1CCN(c2cc(F)cc(C(=O)Nc3c[nH]nc3C(=O)NC3CCCCC3)c2)CC1 [Example 215] | < 20 µM | < 20 µM
6 | NC[C@H]1CC[C@H](NC(=O)c2n[nH]cc2NC(=O)c2c(F)cccc2F)CC1 [Example 163] | < 20 µM | < 20 µM
7 | O=C(NCC1CCNCC1)c1n[nH]cc1NC(=O)c1c(F)cccc1F [Example 111] | < 20 µM | < 20 µM
8 | CC(NC(=O)c1n[nH]cc1NC(=O)c1c(F)cccc1F)c1ccccc1 (centres unmarked) [Example 108] | < 20 µM | < 100 µM
9 | O=C(Nc1c[nH]nc1C(=O)NC1CCNCC1)c1ccccc1N1CCOCC1 [Example 199] | < 20 µM | < 20 µM
10 | O=C(Nc1ccccc1)Nc1c[nH]nc1C(=O)N[C@H]1CC[C@H](O)CC1 [Example 156] | < 20 µM | –
11 | CN1CCC(N2CCC(NC(=O)c3n[nH]cc3NC(=O)c3c(F)cccc3F)CC2)CC1 [Example 177] | < 20 µM | –
12 | O=C(Nc1c[nH]nc1C(=O)N[C@H]1CC[C@H](O)CC1)c1cccc2c1OCCO2 [Example 159] | < 20 µM | < 20 µM
13 | CN1CCC(NC(=O)c2n[nH]cc2NC(=O)c2c(F)cccc2Cl)CC1 [Example 186] | < 20 µM | < 20 µM
14 | O=C(N[C@H]1CC[C@H](NC2CCOCC2)CC1)c1n[nH]cc1NC(=O)c1c(F)cccc1F [Example 116] | < 20 µM | < 20 µM
15 | Cc1cc(CNC(=O)c2n[nH]cc2NC(=O)c2c(F)cccc2F)no1 [Example 101] | < 20 µM | < 20 µM
16 | CC(C)(C)CNC(=O)Nc1c[nH]nc1C(=O)N[C@H]1CC[C@H](O)CC1 [Example 169] | < 20 µM | –
17 | COc1cscc1C(=O)Nc1c[nH]nc1C(=O)N[C@H]1CC[C@H](O)CC1 [Example 158] | < 20 µM | < 20 µM
18 | CCOc1ccccc1C(=O)Nc1c[nH]nc1C(=O)NC1CCNCC1 [Example 198] | < 20 µM | < 20 µM
19 | CN1CCN([C@H]2CC[C@@H](NC(=O)c3n[nH]cc3NC(=O)c3c(F)cccc3F)CC2)CC1 [Example 118] | < 20 µM | < 20 µM
20 | O=C(NC1CCN(CC2CCOC2)CC1)c1n[nH]cc1NC(=O)c1c(F)cccc1F (centres unmarked) [Example 133] | < 20 µM | < 20 µM
21 | CN1CCN([C@H]2CC[C@H](NC(=O)c3n[nH]cc3NC(=O)c3c(F)cccc3F)CC2)CC1 [Example 117] | < 20 µM | < 20 µM

Row | SMILES | IC50 (Activated CDK2/CyclinA) | IC50 [1]
22 | O=C(N[C@H]1CC[C@@H](NC2CCOCC2)CC1)c1n[nH]cc1NC(=O)c1c(F)cccc1F [Example 170] | < 20 µM | –
23 | O=C(NC1CCC(CO)CC1)c1n[nH]cc1NC(=O)c1c(F)cccc1F (centres unmarked) [Example 120] | < 20 µM | < 20 µM
24 | O=C(NCC1CCCO1)c1n[nH]cc1NC(=O)c1c(F)cccc1F (centres unmarked) [Example 100] | < 20 µM | < 20 µM
25 | O=C(NCc1ccco1)c1n[nH]cc1NC(=O)c1c(F)cccc1F [Example 107] | < 20 µM | < 20 µM
26 | CN1CCC(NC(=O)c2n[nH]cc2NC(=O)c2c(Cl)cccc2Cl)CC1 [Example 187] | < 20 µM | < 20 µM
27 | O=C(N[C@@H]1CCNC1)c1n[nH]cc1NC(=O)c1c(F)cccc1F [Example 185] | < 20 µM | –
28 | O=C(NC1CCNCC1)c1n[nH]cc1NC(=O)c1c(F)cc(F)cc1F [Example 148] | < 20 µM | < 20 µM
29 | COc1ccccc1C(=O)Nc1c[nH]nc1C(=O)NC1CCNCC1 [Example 190] | < 20 µM | < 20 µM
30 | CC1CCC(NC(=O)c2n[nH]cc2NC(=O)c2c(F)cccc2F)CC1 (centres unmarked) [Example 113] | < 20 µM | < 20 µM
31 | CC(C)(C)OC(=O)N1CCC(NC(=O)c2n[nH]cc2NC(=O)c2ccccc2)CC1 [Example 172] | < 20 µM | –
32 | O=C(Nc1c[nH]nc1C(=O)NC1CCNCC1)c1ccccc1OC(F)(F)F [Example 196] | < 20 µM | < 20 µM
33 | CC(C)(C)NC(=O)Nc1c[nH]nc1C(=O)NCC1CC1 [Example 184] | < 20 µM | –
34 | COCCN1CCC(NC(=O)c2n[nH]cc2NC(=O)c2c(Cl)cccc2Cl)CC1 [Example 209] | < 20 µM | < 20 µM
35 | CN(C)[C@H]1CC[C@H](NC(=O)c2n[nH]cc2NC(=O)c2c(F)cccc2F)CC1 [Example 124] | < 20 µM | < 20 µM
36 | O=C(NC1CCN(CC2CC2)CC1)c1n[nH]cc1NC(=O)c1c(F)cccc1F [Example 109] | < 20 µM | < 20 µM
37 | CN1CCC(NC(=O)c2n[nH]cc2NC(=O)c2ccccc2Cl)CC1 [Example 211] | < 20 µM | < 20 µM
38 | O=C(NC1CCNCC1)c1n[nH]cc1NC(=O)c1c(Cl)cncc1Cl [Example 194] | < 20 µM | < 20 µM
39 | O=C(NC1CCN(c2cccc(Cl)n2)CC1)c1n[nH]cc1NC(=O)c1c(F)cccc1F [Example 115] | < 20 µM | < 20 µM
40 | CO[C@H]1CC[C@H](NC(=O)c2n[nH]cc2NC(=O)c2c(F)cccc2F)CC1 [Example 137] | < 20 µM | < 20 µM
41 | CN1CCC(NC(=O)c2n[nH]cc2NC(=O)c2cccc(Cl)c2Cl)CC1 [Example 213] | < 20 µM | < 20 µM
42 | O=C(NC1CCC(N2CCSCC2)CC1)c1n[nH]cc1NC(=O)c1c(F)cccc1F (centres unmarked) [Example 121] | < 20 µM | < 20 µM

Row | SMILES | IC50 (Activated CDK2/CyclinA) | IC50 [1]
43 | CN1CCC(C(=O)Nc2c[nH]nc2C(=O)NCC2CC2)CC1 [Example 181] | < 20 µM | –
44 | O=C(N[C@H]1CC[C@H](N2CCOCC2)CC1)c1n[nH]cc1NC(=O)c1c(F)cccc1F [Example 167] | < 20 µM | < 20 µM
45 | O=C(N[C@H]1CC[C@H](N2CCS(=O)(=O)CC2)CC1)c1n[nH]cc1NC(=O)c1c(F)cccc1F [Example 132] | < 20 µM | < 20 µM
46 | Cc1ccc(C(=O)Nc2c[nH]nc2C(=O)NC2CCN(C)CC2)cc1 [Example 189] | < 20 µM | < 20 µM
47 | CS(=O)(=O)NC[C@H]1CC[C@H](NC(=O)c2n[nH]cc2NC(=O)c2c(F)cccc2F)CC1 [Example 164] | < 20 µM | < 20 µM
48 | COc1cccc(F)c1C(=O)Nc1c[nH]nc1C(=O)N[C@H]1CC[C@H](O)CC1 [Example 154] | < 20 µM | < 20 µM
49 | O=C(Nc1c[nH]nc1C(=O)NC1CCNCC1)c1ccccc1Br [Example 201] | < 20 µM | < 20 µM
50 | COc1ccccc1CNC(=O)c1n[nH]cc1NC(=O)c1c(F)cccc1F [Example 96] | < 20 µM | < 20 µM
51 | O=C(NC1CCN(c2ncccn2)CC1)c1n[nH]cc1NC(=O)c1c(F)cccc1F [Example 110] | < 20 µM | < 20 µM
52 | COc1ccccc1C(=O)Nc1c[nH]nc1C(=O)N[C@H]1CC[C@H](O)CC1 [Example 153] | < 20 µM | < 20 µM
53 | O=C1CC[C@H](NC(=O)c2n[nH]cc2NC(=O)c2c(F)cccc2F)CN1 [Example 139] | < 20 µM | < 20 µM
54 | O=C(N[C@H]1CCCNC1)c1n[nH]cc1NC(=O)c1c(Cl)cccc1Cl [Example 208] | < 20 µM | < 20 µM
55 | CO[C@H]1CC[C@H](NC(=O)c2n[nH]cc2NC(=O)c2c(Cl)cccc2Cl)CC1 [Example 210] | < 20 µM | –
56 | O=C(NC[C@H]1CC[C@H](NC(=O)c2n[nH]cc2NC(=O)c2c(F)cccc2F)CC1)OCc1ccccc1 [Example 130] | < 20 µM | –
57 | O=C(N[C@H]1CC[C@@H](N2CCOCC2)CC1)c1n[nH]cc1NC(=O)c1c(F)cccc1F [Example 168] | < 20 µM | –
58 | CN1CCC(NC(=O)Nc2c[nH]nc2C(=O)N[C@H]2CC[C@H](O)CC2)CC1 [Example 171] | < 20 µM | –
59 | CC(C)(C)OC(=O)N1CCC(NC(=O)c2n[nH]cc2NC(=O)c2ccc(F)cc2)CC1 [Example 173] | < 20 µM | –
60 | O=C(Nc1c[nH]nc1C(=O)Nc1ccc(F)cc1)c1cnc[nH]1 [Example 39, 4-[(3H-Imidazole-4-carbonyl)-amino]-1H-pyrazole-3-carboxylic acid (4-fluoro-phenyl)-amide] | – | < 100 µM
61 | CN1CCC(NC(=O)c2n[nH]cc2NC(=O)c2c(F)cc(F)cc2F)CC1 [Example 205] | – | < 20 µM
